This is an account of results in ChEMBL document CHEMBL5370585, “Exploration and Biological Evaluation of 1,3-Diamino-7H-pyrrol[3,2-f]quinazoline Derivatives as Dihydrofolate Reductase Inhibitors” (J Med Chem, 2023).

What is called inhibition is how much of the control response was suppressed. As a reminder, the MIC is the lowest concentration found to suppress growth. The pIC50 is the negative decadic logarithm of the IC50, by convention in mol/L. As usually defined, the LD50 is the dose at which mortality reaches 50%.

Data set [1] concerns the target T1, Dihydrofolate reductase (Homo sapiens) (UniProt P00374).
T1 sequence (whole entry): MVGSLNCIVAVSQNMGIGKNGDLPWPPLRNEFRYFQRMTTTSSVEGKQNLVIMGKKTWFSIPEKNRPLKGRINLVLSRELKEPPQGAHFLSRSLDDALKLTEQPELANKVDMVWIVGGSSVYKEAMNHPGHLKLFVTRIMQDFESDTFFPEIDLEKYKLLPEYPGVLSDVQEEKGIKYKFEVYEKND
Description: Inhibition of human DHFR at 1 uM incubated for 10 mins in presence of NADPH by colorimetry based analysis relative to control.

For another data set, the system named is Enterococcus faecalis. The data set can be described thus: Antibacterial activity against Enterococcus faecalis ATCC 29212 incubated for 16 to 18 hrs by CLSI based broth dilution method. It is filed as functional. The following applies: time 16-18 hrs. (In general: Broth dilution looks for growth in wells or tubes with falling amounts of substance.)
The next data set has as its system HCT-116. Description: Cytotoxicity against human HCT-116 cells measured after 72 hrs by MTT assay. The following applies: HCT-116, 72 h. It counts as functional, cell-based. Background: Tetrazolium dyes change colour on reduction, which living cells bring about.
Data set [2] in a line: Toxicity in ICR mouse assessed as median lethal dose administered as single IP dose measured upto 8 days. To be noted: in vivo, time < 8 day.
Data set [3] relates to Staphylococcus epidermidis. Description: Antibacterial activity against Staphylococcus epidermidis ATCC 12228 incubated for 16 to 18 hrs by CLSI based broth dilution method. It counts as functional. The following applies: time 16-18 hrs.
A further data set deals with HepG2. Description: Cytotoxicity against human HepG2 cells measured after 72 hrs by MTT assay. It counts as functional, cell-based. To be noted: HepG2, 72 h.
The subject of data set [4] is Staphylococcus aureus. Description: Antibacterial activity against Staphylococcus aureus ATCC 29213 incubated for 16 to 18 hrs by CLSI based broth dilution method. It is filed as functional. The following applies: time 16-18 hrs.
For another data set, the system named is HGC-27. The data set can be described thus: Cytotoxicity against human HGC-27 cells measured after 72 hrs by MTT assay. The following applies: HGC-27, 72 h. It counts as functional, cell-based.
The subject of data set [5] is Staphylococcus aureus. The data set can be described thus: Drug resistance against methicillin-resistant Staphylococcus aureus ATCC 43300 assessed as fold increase in MIC measured after 10 passaging for 24 hrs. It counts as functional.
The test system of the next data set is Escherichia coli. The data set can be described thus: Antibacterial activity against Escherichia coli ATCC 25922 incubated for 16 to 18 hrs by CLSI based broth dilution method. The following applies: time 16-18 hrs. It is filed as functional.
The test system of another data set is Acinetobacter baumannii. Description: Antibacterial activity against Acinetobacter baumannii ATCC 19606 incubated for 16 to 18 hrs by CLSI based broth dilution method. It counts as functional. To be noted: time 16-18 hrs.
In the next data set the test system is MCF7. Description: Cytotoxicity against human MCF7 cells measured after 72 hrs by MTT assay. It counts as functional, cell-based. To be noted: MCF7, 72 h.
Data set [6] concerns Staphylococcus aureus. Description: Antibacterial activity against methicillin-resistant Staphylococcus aureus ATCC 43300 incubated for 16 to 18 hrs by CLSI based broth dilution method. It counts as functional. To be noted: time 16-18 hrs.
The test system of data set [7] is EMT6. The data set can be described thus: Antitumor activity against mouse EMT6 cells xenografted in BALB/c mouse model assessed as tumor weight at 20 mg/kg,ip administered every 3 days for 14 consecutive days (reference value: 1.53 +/-0.26g). To be noted: time 14 day. It counts as functional.
Data set [8] in a line: Toxicity in BALB/c mouse xenografted with mouse EMT6 cells assessed as effect on body weight at 20 mg/kg, ip measured on day 14 (reference value: 21.6 +/-0.6g). It counts as organism-based. The following applies: in vivo, 336 h, time 14 day.
A short description of data set [9]: Toxicity in BALB/c mouse xenografted with mouse EMT6 cells at 24 mg/kg, ip administered every 3 days for 14 consecutive days. It is filed as organism-based. The following applies: in vivo, 336 h, time 14 day.
Data set [10] concerns EMT6. The data set can be described thus: Antitumor activity against mouse EMT6 cells xenografted in BALB/c mouse model assessed as tumor growth inhibition at 20 mg/kg,ip administered every 3 days for 14 consecutive days relative to control. It is filed as functional. Details: scale not given: the % may be the effect or the level left. To be noted: time 14 day.
A short description of data set [11]: Toxicity in BALB/c mouse xenografted with mouse EMT6 cells assessed as effect on body weight at 20 mg/kg, ip measured on day 1 (reference value: 18.5 +/-0.5g). It counts as organism-based. To be noted: in vivo, 24 h, time 1 day.
A short description of data set [12]: Metabolic stability in mouse liver microsomes assessed as hepatic clearance at 1 uM measured upto 60 mins in presence of NADPH by LC-MS/MS analysis. It is filed as ADME, Microsome. To be noted: 1 h. On the technique in general: Microsomes from liver hold many membrane-bound enzymes, among them those of drug oxidation.
Data set [13] in a line: Metabolic stability in mouse liver microsomes assessed as intrinsic clearance at 1 uM measured upto 60 mins in presence of NADPH by LC-MS/MS analysis. It counts as ADME, Microsome. The following applies: read-out: CLH.

pIC50: −log10 of the molar value. Converted amounts (≈) assume the structure as drawn.

For the compound `Nc1nc(N)c2c(ccc3c2ccn3Cc2ccc(-c3ccccc3)cc2)n1`, in data set [1], the inhibition came out at 54.8%. The minimal inhibitory concentration (MIC) was 0.25 µg/mL (≈ 0.684 µM) in the data set on Enterococcus faecalis; at most 0.004 µg/mL in data set [3]; 1 µg/mL (≈ 2.74 µM) with Staphylococcus aureus [4]; above 128 µg/mL with Escherichia coli; above 32 µg/mL with Acinetobacter baumannii; 0.5 µg/mL (≈ 1.37 µM) against Staphylococcus aureus [6]. Moreover, the pIC50 with HCT-116 is 7.49; with HepG2 it was 6.28; in the data set on HGC-27, 7.07; in the data set on MCF7, 6.24. The LD50 at 192 h in data set [2] came out at 154 mg/kg. Also, the “fold change (FC)” value in the data set on Staphylococcus aureus [5] was determined as 8.
With `CC(=O)O[C@H]1C(=O)[C@@]2(C)[C@H]([C@H](OC(=O)c3ccccc3)[C@]3(O)C[C@H](OC(=O)[C@H](O)[C@@H](NC(=O)c4ccccc4)c4ccccc4)C(C)=C1C3(C)C)[C@]1(OC(C)=O)CO[C@@H]1C[C@@H]2O` [PACLITAXEL], the Activity is given as 0.71 g in the data set with EMT6 [7]; 20.1 g in data set [8]; “Non-Toxic” in data set [9]; 53.2% with EMT6 [10]; 18.6 g in data set [11].
As to `COc1ccc2c(c1)[C@]13CCCC[C@@H]1[C@H](C2)N(C)CC3` [DEXTROMETHORPHAN], in [12], the CLH amounted to 77 mL/min/kg. The microsomal CLint at 1 µM in data set [13] turned out to be 135 µL/min/mg.
